Measurements: patent publication US4593093A, “Acyl derivatives” (priority 1980, dated 1986)
Structures can show the parent of a compound that is named as a salt. Where two headings read alike, the source gives them in different places.

Tests used:
Escherichia coli [1] = assay: Activity in vivo: survival of intraperitoneally infected mice; settings: sc, 96 h; mice infected i.p. with Escherichia coli; s.c. twice, 1 h and 3 h after infection; survival on 4th day; read-out: CD50 (dosage at which 50% of the animals survive)
Description: (§1) Groups of 5 mice are infected intraperitoneally with an aqueous suspension of various pathogens. The test substance in physiological sodium chloride solution is administered subcutaneously twice, i.e. 1 hour and 3 hours after the infection. The number of surviving animals is determined on the 4th day. Various dosages are administered and that dosage at which 50% of the experimental animals survive (CD50, mg/kg) is determined by interpolation.

Serratia marcescens [2] = assay: as above; settings: sc, 96 h, mice infected i.p. with Serratia marcescens strain 1, s.c. twice, 1 h and 3 h after infection, survival on 4th day, read-out: CD50 (dosage at which 50% of the animals survive)
Description: as §1

Haemophilus influenzae = assay: as above; settings: sc, 96 h; mice infected i.p. with Haemophilus influenzae; s.c. twice, 1 h and 3 h after infection; survival on 4th day; read-out: CD50 (dosage at which 50% of the animals survive)
Description: as §1

Enterobacter cloacae [3] = assay: as above; settings: sc, 96 h; mice infected i.p. with Enterobacter cloacae; s.c. twice, 1 h and 3 h after infection; survival on 4th day; read-out: CD50 (dosage at which 50% of the animals survive)
Description: as §1

Streptococcus pyogenes [4] = assay: as above; settings: sc, 96 h; mice infected i.p. with Streptococcus pyogenes; s.c. twice, 1 h and 3 h after infection; survival on 4th day; read-out: CD50 (dosage at which 50% of the animals survive)
Description: as §1

Streptococcus faecalis = assay: Activity in vitro: minimum inhibitory concentration; type: cell-based; settings: Enterococcus faecalis
Escherichia coli [5] = assay: as above; type: cell-based
Streptococcus pneumoniae = assay: as above; type: cell-based
Enterobacter aerogenes = assay: as above; type: cell-based; settings: Klebsiella aerogenes
Citrobacter freundii = assay: as above; type: cell-based
Proteus rettgeri = assay: as above; type: cell-based; settings: Providencia rettgeri
Pseudomonas aeruginosa [6] = assay: as above; type: cell-based
Staphylococcus epidermis = assay: as above; type: cell-based
Enterobacter cloacae [7] = assay: as above; type: cell-based
Streptococcus pyogenes [8] = assay: as above; type: cell-based
Serratia marcescens [9] = assay: as above; type: cell-based
Pseudomonas aeruginosa [10] = assay: Activity in vivo: survival of intraperitoneally infected mice; settings: sc, 96 h; mice infected i.p. with Pseudomonas aeruginosa; s.c. three times, 1 h, 3 h and 5 h after infection; survival on 4th day; read-out: CD50 (dosage at which 50% of the animals survive)
Description: as §1
*Administered subcutaneously three times: 1 hour, 3 hours and 5 hours

Proteus inconstans = assay: Activity in vitro: minimum inhibitory concentration; type: cell-based; settings: Providencia alcalifaciens
Toxicity, LD50 = settings: in vivo
Proteus vulgaris = assay: Activity in vitro: minimum inhibitory concentration; type: cell-based
Staphylococcus aureus = assay: as above; type: cell-based
Streptococcus viridans = assay: as above; type: cell-based
Klebsiella pseumoniae = assay: as above; type: cell-based
Proteus mirabilis = assay: as above; type: cell-based
Proteus morganii = assay: as above; type: cell-based; settings: Morganella morganii
[11] = Streptococcus faecalis strain 1
[12] = Streptococcus faecalis strain 2
[13] = Enterobacter aerogenes strain 1
[14] = Enterobacter aerogenes strain 2
[15] = Pseudomonas aeruginosa strain 1
[16] = Pseudomonas aeruginosa strain 2
[17] = Pseudomonas aeruginosa strain 3
[18] = Streptococcus pyogenes strain 1, read-out: Minimum inhibitory concentration
[19] = Streptococcus pyogenes strain 2, read-out: Minimum inhibitory concentration

With `CO/N=C(\C(=O)N[C@@H]1C(=O)N2C(C(=O)O)=C(CSc3nnc(C)s3)CS[C@H]12)c1c[se]c(N)n1` [Product B, (6R, 7R)-7-[2-)2-amino-4-selenazolyl)-2-[(Z)-methoxyimino]-acetamido]-3-[[(5-methyl-1,3,4-thiadiazol-2-yl)thio]methyl]-8-oxo-5-thia-1-azabicyclo[4.2.0]oct-2-ene-2-carboxylic acid sodium salt] the ED50 (Escherichia coli [1]) was 0.006 mg/kg, the ED50 (Serratia marcescens [2]) was 0.52 mg/kg and the ED50 (Haemophilus influenzae) was 0.27 mg/kg. For the same molecule, the ED50 (Enterobacter cloacae [3]) was > 12 mg/kg, the ED50 (Streptococcus pyogenes [4]) was 0.05 mg/kg and the MIC (Streptococcus faecalis; [11]) was 100 µg/mL. The MIC (Streptococcus faecalis; [12]) was 100 µg/mL, the MIC (Escherichia coli [5]; Escherichia coli strain 1) was 0.2 µg/mL and the MIC (Escherichia coli [5]; Escherichia coli strain 2) was 0.006 µg/mL. The MIC (Escherichia coli [5]; Escherichia coli strain 3) was 0.8 µg/mL, the MIC (Escherichia coli [5]; Escherichia coli strain 4) was 0.2 µg/mL and the MIC (Escherichia coli [5]; Escherichia coli strain 5) was 0.4 µg/mL. It also gave an MIC (Streptococcus pneumoniae) of 0.025 µg/mL, an MIC (Enterobacter aerogenes; [13]) of 0.1 µg/mL and an MIC (Enterobacter aerogenes; [14]) of 0.1 µg/mL. It also gave an MIC (Citrobacter freundii; Citrobacter freundii strain 1) of 1.6 µg/mL, an MIC (Citrobacter freundii; Citrobacter freundii strain 2) of 0.2 µg/mL and an MIC (Proteus rettgeri) of 0.2 µg/mL. The MIC (Pseudomonas aeruginosa [6]; [15]) was 50 µg/mL, the MIC (Pseudomonas aeruginosa [6]; [16]) was 25 µg/mL and the MIC (Pseudomonas aeruginosa [6]; [17]) was 6.3 µg/mL. The MIC (Staphylococcus epidermis) was 0.8 µg/mL, the MIC (Enterobacter cloacae [7]; Enterobacter cloacae strain 1) was > 100 µg/mL and the MIC (Enterobacter cloacae [7]; Enterobacter cloacae strain 2) was 1.6 µg/mL. For the same molecule, the MIC (Enterobacter cloacae [7]; Enterobacter cloacae strain 3) was 50 µg/mL, the MIC (Streptococcus pyogenes [8]; [18]) was 0.025 µg/mL and the MIC (Streptococcus pyogenes [8]; [19]) was ≤ 0.012 µg/mL. For the same molecule, the MIC (Serratia marcescens [9]; Serratia marcescens strain 1) was 0.8 µg/mL, the MIC (Serratia marcescens [9]; Serratia marcescens strain 2) was 1.6 µg/mL and the MIC (Serratia marcescens [9]; Serratia marcescens strain 3) was 0.2 µg/mL. For the same molecule, the ED50 (Pseudomonas aeruginosa [10]) was 134 mg/kg, the MIC (Proteus inconstans) was 0.025 µg/mL and the LD50 (Toxicity, LD50; po) was > 5000 mg/kg. The LD50 (Toxicity, LD50; sc) was > 4000 mg/kg, the MIC (Proteus vulgaris) was 0.78 µg/mL and the MIC (Staphylococcus aureus; Staphylococcus aureus strain 1) was 0.8 µg/mL. For the same molecule, the MIC (Staphylococcus aureus; Staphylococcus aureus strain 2) was 1.6 µg/mL, the MIC (Staphylococcus aureus; Staphylococcus aureus strain 3) was 0.8 µg/mL and the MIC (Staphylococcus aureus; Staphylococcus aureus strain 4) was 1.6 µg/mL. For the same molecule, the MIC (Streptococcus viridans) was 0.8 µg/mL, the MIC (Klebsiella pseumoniae; Klebsiella pseumoniae strain 1) was 0.4 µg/mL and the MIC (Klebsiella pseumoniae; Klebsiella pseumoniae strain 2) was 0.1 µg/mL. The MIC (Klebsiella pseumoniae; Klebsiella pseumoniae strain 3) was 0.2 µg/mL, the MIC (Proteus mirabilis; Proteus mirabilis strain 1) was 0.19 µg/mL and the MIC (Proteus mirabilis; Proteus mirabilis strain 2) was 0.19 µg/mL. For the same molecule, the MIC (Proteus mirabilis; Proteus mirabilis strain 3) was 0.2 µg/mL, the MIC (Proteus mirabilis; Proteus mirabilis strain 4) was 0.4 µg/mL and the MIC (Proteus mirabilis; Proteus mirabilis strain 5) was 0.4 µg/mL. It also gave an MIC (Proteus morganii) of 0.05 µg/mL.
For `CO/N=C(\C(=O)N[C@@H]1C(=O)N2C(C(=O)[O-])=C(CSc3nnnn3C)CS[C@H]12)c1c[se]c(N)n1.[Na+]` [Product A, (6R, 7R)-7-[2-(2-amino-4-selenazolyl)-2-[(Z)-methoxyimino]-acetamido]-3-[[(1-methyl-1H-tetrazol-5-yl)-thio]methyl]-8-oxo-5-thia-1-azabicyclo[4.2.0]oct-2-ene-2-carboxylic acid sodium salt], the ED50 (Escherichia coli [1]) was 0.006 mg/kg, the ED50 (Serratia marcescens [2]) was 0.13 mg/kg and the ED50 (Haemophilus influenzae) was 1.5 mg/kg. For the same molecule, the ED50 (Enterobacter cloacae [3]) was 8.4 mg/kg, the ED50 (Streptococcus pyogenes [4]) was 0.05 mg/kg and the MIC (Streptococcus faecalis; [11]) was 100 µg/mL. The MIC (Streptococcus faecalis; [12]) was > 100 µg/mL, the MIC (Escherichia coli [5]; Escherichia coli strain 1) was 0.1 µg/mL and the MIC (Escherichia coli [5]; Escherichia coli strain 2) was 0.025 µg/mL. It also gave an MIC (Escherichia coli [5]; Escherichia coli strain 3) of 0.4 µg/mL, an MIC (Escherichia coli [5]; Escherichia coli strain 4) of 0.2 µg/mL and an MIC (Escherichia coli [5]; Escherichia coli strain 5) of 0.4 µg/mL. For the same molecule, the MIC (Streptococcus pneumoniae) was 0.025 µg/mL, the MIC (Enterobacter aerogenes; [13]) was 0.1 µg/mL and the MIC (Enterobacter aerogenes; [14]) was 0.1 µg/mL. It also gave an MIC (Citrobacter freundii; Citrobacter freundii strain 1) of 1.6 µg/mL, an MIC (Citrobacter freundii; Citrobacter freundii strain 2) of 0.05 µg/mL and an MIC (Proteus rettgeri) of 0.2 µg/mL. It also gave an MIC (Pseudomonas aeruginosa [6]; [15]) of 25 µg/mL, an MIC (Pseudomonas aeruginosa [6]; [16]) of 25 µg/mL and an MIC (Pseudomonas aeruginosa [6]; [17]) of 6.3 µg/mL. For the same molecule, the MIC (Staphylococcus epidermis) was 0.8 µg/mL, the MIC (Enterobacter cloacae [7]; Enterobacter cloacae strain 1) was > 100 µg/mL and the MIC (Enterobacter cloacae [7]; Enterobacter cloacae strain 2) was 0.8 µg/mL. The MIC (Enterobacter cloacae [7]; Enterobacter cloacae strain 3) was 50 µg/mL, the MIC (Streptococcus pyogenes [8]; [18]) was 0.025 µg/mL and the MIC (Streptococcus pyogenes [8]; [19]) was ≤ 0.012 µg/mL. It also gave an MIC (Serratia marcescens [9]; Serratia marcescens strain 1) of 0.4 µg/mL, an MIC (Serratia marcescens [9]; Serratia marcescens strain 2) of 0.8 µg/mL and an MIC (Serratia marcescens [9]; Serratia marcescens strain 3) of 0.1 µg/mL. For the same molecule, the ED50 (Pseudomonas aeruginosa [10]) was 39 mg/kg, the MIC (Proteus inconstans) was 0.025 µg/mL and the LD50 (Toxicity, LD50; po) was > 5000 mg/kg. The LD50 (Toxicity, LD50; sc) was > 4000 mg/kg, the MIC (Proteus vulgaris) was 0.78 µg/mL and the MIC (Staphylococcus aureus; Staphylococcus aureus strain 1) was 0.8 µg/mL. The MIC (Staphylococcus aureus; Staphylococcus aureus strain 2) was 1.6 µg/mL, the MIC (Staphylococcus aureus; Staphylococcus aureus strain 3) was 0.8 µg/mL and the MIC (Staphylococcus aureus; Staphylococcus aureus strain 4) was 0.8 µg/mL. For the same molecule, the MIC (Streptococcus viridans) was 0.8 µg/mL, the MIC (Klebsiella pseumoniae; Klebsiella pseumoniae strain 1) was 0.2 µg/mL and the MIC (Klebsiella pseumoniae; Klebsiella pseumoniae strain 2) was 0.05 µg/mL. It also gave an MIC (Klebsiella pseumoniae; Klebsiella pseumoniae strain 3) of 0.1 µg/mL, an MIC (Proteus mirabilis; Proteus mirabilis strain 1) of 0.1 µg/mL and an MIC (Proteus mirabilis; Proteus mirabilis strain 2) of 0.1 µg/mL. For the same molecule, the MIC (Proteus mirabilis; Proteus mirabilis strain 3) was 0.8 µg/mL, the MIC (Proteus mirabilis; Proteus mirabilis strain 4) was 0.05 µg/mL and the MIC (Proteus mirabilis; Proteus mirabilis strain 5) was 0.05 µg/mL. It also gave an MIC (Proteus morganii) of 0.1 µg/mL.
